# Measured values: ChEMBL document CHEMBL3046039, “In vivo antidiabetic activity and in silico studies on adenosine monophosphate-activated protein kinase (AMPK) of (2E,5E)-2,5-bis(4-hydroxy-3-methoxybenzylidene) cyclopentanone” (2013)
# Calls of active or inactive are those of the source. The rule behind the calls is not given here.
# Assays:
# [1] = test system: Rattus norvegicus; assay: Increase in sucrose tolerance in fasted normoglycemic Wistar Rattus norvegicus (rat) assessed as reduction in serum glucose level at 25 mg/kg, po measured at 30-120 min post-sucrose challenge by oral sucrose tolerance test; format: functional, organism-based; parameters: dose 25 mg/kg
# [2] = test system: Rattus norvegicus; assay: In vivo antidiabetic activity in streptozotocin-induced diabetic Wistar Rattus norvegicus (rat) assessed as serum HDL-cholesterol level at 25 mg/kg, po for 7 days by spectrophotometric analysis (reference value: 17.52 +/-2.1 mg/dl); format: functional
# [3] = test system: Rattus norvegicus; assay: In vivo antidiabetic activity in streptozotocin-induced diabetic Wistar Rattus norvegicus (rat) assessed as reduction in serum glucose level at 25 mg/kg, po measured after 2 to 4 hr by glucose oxidase method; format: functional, organism-based; parameters: dose 25 mg/kg
# [4] = test system: Rattus norvegicus; assay: In vivo antidiabetic activity in streptozotocin-induced diabetic Wistar Rattus norvegicus (rat) assessed as reduction in serum glucose level at 25 mg/kg, po for 7 days measured at 30 to 120 min post-glucose challenge by oral glucose tolerance test; format: functional, organism-based; parameters: dose 25 mg/kg
# [5] = test system: Rattus norvegicus; assay: In vivo antidiabetic activity in streptozotocin-induced diabetic Wistar Rattus norvegicus (rat) assessed as serum LDL-cholesterol level at 25 mg/kg, po for 7 days by spectrophotometric analysis (reference value: 80.75 +/-3.4 mg/dl); format: functional
# [6] = test system: Rattus norvegicus; assay: Increase in glucose tolerance in fasted normoglycemic Wistar Rattus norvegicus (rat) assessed as suppression of blood glucose AUC at 25 mg/kg, po measured at 30-120 min post-glucose challenge by oral glucose tolerance test; format: functional, organism-based; parameters: dose 25 mg/kg
# [7] = test system: Rattus norvegicus; assay: In vivo antidiabetic activity in streptozotocin-induced diabetic Wistar Rattus norvegicus (rat) assessed as serum triglyceride level at 25 mg/kg, po for 7 days by spectrophotometric analysis (reference value: 128.77 +/-6.3 mg/dl); format: functional
# [8] = test system: Rattus norvegicus; assay: In vivo antidiabetic activity in streptozotocin-induced diabetic Wistar Rattus norvegicus (rat) assessed as serum total cholesterol level at 25 mg/kg, po for 7 days by spectrophotometric analysis (reference value: 126.62 +/-4.7 mg/dl); format: functional
# [9] = test system: Rattus norvegicus; assay: In vivo antidiabetic activity in streptozotocin-induced diabetic Wistar Rattus norvegicus (rat) assessed as serum VLDL-cholesterol level at 25 mg/kg, po for 7 days by spectrophotometric analysis (reference value: 28.12 +/-1.5 mg/dl); format: functional
# [10] = test system: Rattus norvegicus; assay: Increase in sucrose tolerance in fasted normoglycemic Wistar Rattus norvegicus (rat) assessed as reduction in serum glucose level at 7 mg/kg, po measured at 30-120 min post-sucrose challenge by oral sucrose tolerance test; format: functional, organism-based; parameters: dose 7 mg/kg
# [11] = test system: Rattus norvegicus; assay: In vivo antidiabetic activity in streptozotocin-induced diabetic Wistar Rattus norvegicus (rat) assessed as serum VLDL-cholesterol level at 0.5 mg/kg, po for 7 days by spectrophotometric analysis (reference value: 28.12 +/-1.5 mg/dl); format: functional
# [12] = test system: Rattus norvegicus; assay: In vivo antidiabetic activity in streptozotocin-induced diabetic Wistar Rattus norvegicus (rat) assessed as serum total cholesterol level at 0.5 mg/kg, po for 7 days by spectrophotometric analysis (reference value: 126.62 +/-4.7 mg/dl); format: functional
# [13] = test system: Rattus norvegicus; assay: In vivo antidiabetic activity in streptozotocin-induced diabetic Wistar Rattus norvegicus (rat) assessed as serum LDL-cholesterol level at 0.5 mg/kg, po for 7 days by spectrophotometric analysis (reference value: 80.75 +/-3.4 mg/dl); format: functional
# [14] = test system: Rattus norvegicus; assay: In vivo antidiabetic activity in streptozotocin-induced diabetic Wistar Rattus norvegicus (rat) assessed as reduction in serum glucose level at 10 mg/kg, po measured after 4 hr by glucose oxidase method; format: functional, organism-based; parameters: dose 10 mg/kg
# [15] = test system: Rattus norvegicus; assay: Increase in glucose tolerance in fasted normoglycemic Wistar Rattus norvegicus (rat) assessed as suppression of blood glucose AUC at 10 mg/kg, po measured at 30-120 min post-glucose challenge by oral glucose tolerance test; format: functional, organism-based; parameters: dose 10 mg/kg
# [16] = test system: Rattus norvegicus; assay: In vivo antidiabetic activity in streptozotocin-induced diabetic Wistar Rattus norvegicus (rat) assessed as serum triglyceride level at 0.5 mg/kg, po for 7 days by spectrophotometric analysis (reference value: 128.77 +/-6.3 mg/dl); format: functional
# [17] = test system: Rattus norvegicus; assay: In vivo antidiabetic activity in streptozotocin-induced diabetic Wistar Rattus norvegicus (rat) assessed as reduction in serum glucose level at 0.5 mg/kg, po for 7 days measured at 30 to 120 min post-glucose challenge by oral glucose tolerance test; format: functional, organism-based; parameters: dose 0.5 mg/kg
# [18] = test system: Rattus norvegicus; assay: In vivo antidiabetic activity in streptozotocin-induced diabetic Wistar Rattus norvegicus (rat) assessed as serum HDL-cholesterol level at 0.5 mg/kg, po for 7 days by spectrophotometric analysis (reference value: 17.52 +/-2.1 mg/dl); format: functional
smiles,measurement,setting,value
COc1cc(/C=C2\CC/C(=C\c3ccc(O)c(OC)c3)C2=O)ccc1O,Activity,[1],Active
same,Activity,[2],26.03 mg/dL
same,inhibition,[3],Active
same,inhibition,[4],Active
same,Activity,[5],25.4 mg/dL
same,Activity,[6],Active
same,Activity,[7],81.9 mg/dL
same,Activity,[8],80.41 mg/dL
same,Activity,[9],20.98 mg/dL
C[C@H]1O[C@H](O[C@H]2[C@H](O)[C@@H](O)[C@@H](O[C@H]3[C@H](O)[C@@H](O)C(O)O[C@@H]3CO)O[C@@H]2CO)[C@H](O)[C@@H](O)[C@@H]1N[C@H]1C=C(CO)[C@@H](O)[C@H](O)[C@H]1O (stereo partly drawn),Activity,[10],Active
COc1ccc(Cl)cc1C(=O)NCCc1ccc(S(=O)(=O)NC(=O)NC2CCCCC2)cc1 [GLYBURIDE],Activity,[11],19.4 mg/dL
same,Activity,[12],81.9 mg/dL
same,Activity,[13],39.5 mg/dL
same,inhibition,[14],Active
same,Activity,[15],Active
same,Activity,[16],87.4 mg/dL
same,inhibition,[17],Active
same,Activity,[18],27.3 mg/dL
